Molecular target: T1, JNK1α1 (Homo sapiens, UniProt P45983)
T1 construct: catalytic domain containing amino acids 1-364 and N-terminal hexahistidine tag; hexahistidine (His6) (N); made in house; host or cells: E. coli BL21 (DE3)
Experiment: Coupled spectrophotometric (PK/LDH) JNK1α1 assay: % inhibition and Ki determination
Assay type: biochemical
Settings: @1 uM; read-out: % Inhibition JNK-1
Summary of the method: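 Initial rates were taken from the absorbance decrease at 340 nm at 30° C. Ki was fitted with a tight-binding model over 11 concentrations (top 100 μM); single-point inhibition was tested at 1 or 10 μM.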

T1 sequence (P45983 1-364): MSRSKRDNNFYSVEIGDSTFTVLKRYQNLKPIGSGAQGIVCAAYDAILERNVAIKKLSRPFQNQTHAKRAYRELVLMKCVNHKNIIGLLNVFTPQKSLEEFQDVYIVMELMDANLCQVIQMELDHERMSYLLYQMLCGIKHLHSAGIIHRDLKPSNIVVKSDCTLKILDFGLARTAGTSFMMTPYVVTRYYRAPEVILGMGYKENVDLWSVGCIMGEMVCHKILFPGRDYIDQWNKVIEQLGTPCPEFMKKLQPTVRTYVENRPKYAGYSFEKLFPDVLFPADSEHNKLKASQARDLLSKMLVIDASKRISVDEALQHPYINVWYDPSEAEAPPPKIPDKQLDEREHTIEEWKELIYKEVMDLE

Row | inhibition at 1 µM | Structure (SMILES)
1 | 15% | O=C(NCc1ccccn1)c1cccc2cnc(N[C@H]3CC[C@H](O)CC3)nc12 [Example 468, 2-[(trans-4-hydroxycyclohexyl)amino]-N-(pyridin-2-ylmethyl)quinazoline-8-carboxamide]
2 | 10% | O=C(NCCc1ccccn1)c1cccc2cnc(N[C@H]3CC[C@H](O)CC3)nc12 [Example 469, 2-[(trans-4-hydroxycyclohexyl)amino]-N-(2-pyridin-2-ylethyl)quinazoline-8-carboxamide]
3 | 27% | O=C(N[C@H](CO)c1ccccc1)c1cccc2cnc(N[C@H]3CC[C@H](O)CC3)nc12 [Example 470, 2-[(trans-4-hydroxycyclohexyl)amino]-N-[(1S)-2-hydroxy-1-phenylethyl]quinazoline-8-carboxamide]
4 | 19% | O=C(N[C@@H](CO)c1ccccc1)c1cccc2cnc(N[C@H]3CC[C@H](O)CC3)nc12 [Example 471, 2-[(trans-4-hydroxycyclohexyl)amino]-N-[(1R)-2-hydroxy-1-phenylethyl]quinazoline-8-carboxamide]
5 | 25% | C[C@@H](NC(=O)c1cccc2cnc(N[C@H]3CC[C@H](O)CC3)nc12)[C@@H](O)c1ccccc1 [Example 472, 2-[(trans-4-hydroxycyclohexyl)amino]-N-[(1R,2S)-2-hydroxy-1-methyl-2-phenylethyl]quinazoline-8-carboxamide]
6 | 34% | O=C(NCc1ccncc1)c1cccc2cnc(N[C@H]3CC[C@H](O)CC3)nc12 [Example 473, 2-[(trans-4-hydroxycyclohexyl)amino]-N-(pyridin-4-ylmethyl)quinazoline-8-carboxamide]
7 | 37% | O=C(NC[C@@H](O)c1ccccc1)c1cccc2cnc(N[C@H]3CC[C@H](O)CC3)nc12 [Example 474, 2-[(trans-4-hydroxycyclohexyl)amino]-N-[(2S)-2-hydroxy-2-phenylethyl]quinazoline-8-carboxamide]
8 | 11% | Cc1cccc(CC(C)NC(=O)c2cccc3cnc(N[C@H]4CC[C@H](O)CC4)nc23)n1 (stereo partly drawn) [Example 475, 2-[(trans-4-hydroxycyclohexyl)amino]-N-[1-methyl-2-(6-methylpyridin-2-yl)ethyl]quinazoline-8-carboxamide]
9 | 10% | O=C(NCCN1CCNC1=O)c1cccc2cnc(N[C@H]3CC[C@H](O)CC3)nc12 [Example 476, 2-[(trans-4-hydroxycyclohexyl)amino]-N-[2-(2-oxoimidazolidin-1-yl)ethyl]quinazoline-8-carboxamide]
10 | 14% | O=C(NCc1ccc[nH]c1=O)c1cccc2cnc(N[C@H]3CC[C@H](O)CC3)nc12 [Example 477, 2-[(trans-4-hydroxycyclohexyl)amino]-N-[(2-oxo-1,2-dihydropyridin-3-yl)methyl]quinazoline-8-carboxamide]
11 | 12% | Cc1nnc(CCNC(=O)c2cccc3cnc(N[C@H]4CC[C@H](O)CC4)nc23)[nH]1 [Example 478, 2-[(trans-4-hydroxycyclohexyl)amino]-N-[2-(5-methyl-4H-1,2,4-triazol-3-yl)ethyl]quinazoline-8-carboxamide]
12 | 13% | Cc1c(C(C)NC(=O)c2cccc3cnc(N[C@H]4CC[C@H](O)CC4)nc23)cnn1C (stereo partly drawn) [Example 479, N-[1-(1,5-dimethyl-1H-pyrazol-4-yl)ethyl]-2-[(trans-4-hydroxycyclohexyl)amino]quinazoline-8-carboxamide]

Same assay, conditions: JNK-1

Row | Ki | Structure (SMILES)
13 | 104 nM | O=C(NCC(O)c1ccccc1)c1cccc2cnc(N[C@H]3CC[C@H](O)CC3)nc12 (stereo partly drawn) [Example 443, 2-[(trans-4-hydroxycyclohexyl)amino]-N-(2-hydroxy-2-phenylethyl)quinazoline-8-carboxamide]
14 | 106 nM | O=C(NCC1(O)CCOc2ccccc21)c1cccc2cnc(N[C@H]3CC[C@H](O)CC3)nc12 (stereo partly drawn) [Example 444, 2-[(trans-4-hydroxycyclohexyl)amino]-N-[(4-hydroxy-3,4-dihydro-2H-chromen-4-yl)methyl]quinazoline-8-carboxamide]
15 | 110 nM | CC(C)[C@@H](CO)NC(=O)c1cccc2cnc(N[C@H]3CC[C@H](O)CC3)nc12 [Example 445, 2-[(trans-4-hydroxycyclohexyl)amino]-N-[(1S)-1-(hydroxymethyl)-2-methylpropyl]quinazoline-8-carboxamide]
16 | 112 nM | O=C(N[C@@H]1CCCC[C@@H]1CO)c1cccc2cnc(N[C@H]3CC[C@H](O)CC3)nc12 [Example 446, 2-[(trans-4-hydroxycyclohexyl)amino]-N-[(1R,2S)-2-(hydroxymethyl)cyclohexyl]quinazoline-8-carboxamide]
17 | 119 nM | O=C(NC1CC1)c1cccc2cnc(N[C@H]3CC[C@H](O)CC3)nc12 [Example 447, N-cyclopropyl-2-[(trans-4-hydroxycyclohexyl)amino]quinazoline-8-carboxamide]
18 | 138 nM | O=C(NC1CCN(c2cccnn2)CC1)c1cccc2cnc(N[C@H]3CC[C@H](O)CC3)nc12 [Example 449, 2-[(trans-4-hydroxycyclohexyl)amino]-N-(1-pyridazin-3-ylpiperidin-4-yl)quinazoline-8-carboxamide]
19 | 144 nM | CC(C)C(CO)NC(=O)c1cccc2cnc(N[C@H]3CC[C@H](O)CC3)nc12 (stereo partly drawn) [Example 450, 2-[(trans-4-hydroxycyclohexyl)amino]-N-[1-(hydroxymethyl)-2-methylpropyl]quinazoline-8-carboxamide]
20 | 166 nM | O=C(NCCCO)c1cccc2cnc(N[C@H]3CC[C@H](O)CC3)nc12 [Example 451, 2-[(trans-4-hydroxycyclohexyl)amino]-N-(3-hydroxypropyl)quinazoline-8-carboxamide]
21 | 166 nM | Cc1n[nH]c(C)c1CNC(=O)c1cccc2cnc(N[C@H]3CC[C@H](O)CC3)nc12 [Example 452, N-[(3,5-dimethyl-1H-pyrazol-4-yl)methyl]-2-[(trans-4-hydroxycyclohexyl)amino]quinazoline-8-carboxamide]
22 | 170 nM | CC1(CNC(=O)c2cccc3cnc(N[C@H]4CC[C@H](O)CC4)nc23)COC1 [Example 453]
23 | 221 nM | O=C(NC1(CO)CCCC1)c1cccc2cnc(N[C@H]3CC[C@H](O)CC3)nc12 [Example 454, 2-[(trans-4-hydroxycyclohexyl)amino]-N-[1-(hydroxymethyl)cyclopentyl]quinazoline-8-carboxamide]
24 | 235 nM | O=C(NC1(c2ccncc2)CC1)c1cccc2cnc(N[C@H]3CC[C@H](O)CC3)nc12 [Example 455, 2-[(trans-4-hydroxycyclohexyl)amino]-N-(1-pyridin-4-ylcyclopropyl)quinazoline-8-carboxamide]
25 | 254 nM | O=C(NCC(O)c1ccc(F)c(F)c1)c1cccc2cnc(N[C@H]3CC[C@H](O)CC3)nc12 (stereo partly drawn) [Example 456, N-[2-(3,4-difluorophenyl)-2-hydroxyethyl]-2-[(trans-4-hydroxycyclohexyl)amino]quinazoline-8-carboxamide]
26 | 275 nM | O=C(N[C@H]1CC[C@H](CO)CC1)c1cccc2cnc(N[C@H]3CC[C@H](O)CC3)nc12 [Example 457, 2-[(trans-4-hydroxycyclohexyl)amino]-N-[trans-4-(hydroxymethyl)cyclohexyl]quinazoline-8-carboxamide]
27 | 374 nM | CC[C@H](CO)NC(=O)c1cccc2cnc(N[C@H]3CC[C@H](O)CC3)nc12 [Example 458, 2-[(trans-4-hydroxycyclohexyl)amino]-N-[(1R)-1-(hydroxymethyl)propyl]quinazoline-8-carboxamide]
28 | 399 nM | O=C(N[C@@H]1Cc2ccccc2[C@H]1O)c1cccc2cnc(N[C@H]3CC[C@H](O)CC3)nc12 [Example 459, 2-[(trans-4-hydroxycyclohexyl)amino]-N-[(1R,2R)-1-hydroxy-2,3-dihydro-1H-inden-2-yl]quinazoline-8-carboxamide]
29 | 400 nM | O=C(NCC1(O)CCCC1)c1cccc2cnc(N[C@H]3CC[C@H](O)CC3)nc12 [Example 460, 2-[(trans-4-hydroxycyclohexyl)amino]-N-[(1-hydroxycyclopentyl)methyl]quinazoline-8-carboxamide]
30 | 451 nM | CCCNC(=O)c1cccc2cnc(N[C@H]3CC[C@H](O)CC3)nc12 [Example 461, 2-[(trans-4-hydroxycyclohexyl)amino]-N-propylquinazoline-8-carboxamide]
31 | 471 nM | O=C(NC1(c2ccccn2)CC1)c1cccc2cnc(N[C@H]3CC[C@H](O)CC3)nc12 [Example 462, 2-[(trans-4-hydroxycyclohexyl)amino]-N-(1-pyridin-2-ylcyclopropyl)quinazoline-8-carboxamide]
32 | 486 nM | O=C(N[C@H]1c2ccccc2C[C@H]1O)c1cccc2cnc(N[C@H]3CC[C@H](O)CC3)nc12 [Example 463, 2-[(trans-4-hydroxycyclohexyl)amino]-N-[(1S,2R)-2-hydroxy-2,3-dihydro-1H-inden-1-yl]quinazoline-8-carboxamide]
33 | 685 nM | O=C(NC1(c2cccnc2)CC1)c1cccc2cnc(N[C@H]3CC[C@H](O)CC3)nc12 [Example 464, 2-[(trans-4-hydroxycyclohexyl)amino]-N-(1-pyridin-3-ylcyclopropyl)quinazoline-8-carboxamide]
34 | 782 nM | Cn1cncc1CNC(=O)c1cccc2cnc(N[C@H]3CC[C@H](O)CC3)nc12 [Example 465, 2-[(trans-4-hydroxycyclohexyl)amino]-N-[(1-methyl-1H-imidazol-5-yl)methyl]quinazoline-8-carboxamide]
35 | 962 nM | O=C(N[C@H]1CC[C@@H](CO)CC1)c1cccc2cnc(N[C@H]3CC[C@H](O)CC3)nc12 [Example 466, 2-[(trans-4-hydroxycyclohexyl)amino]-N-[cis-4-(hydroxymethyl)cyclohexyl]quinazoline-8-carboxamide]
36 | 2050 nM | CNC(=O)N1CCC(NC(=O)c2cccc3cnc(N[C@H]4CC[C@H](O)CC4)nc23)CC1 [Example 467, 2-[(trans-4-hydroxycyclohexyl)amino]-N-{1-[(methylamino)carbonyl]piperidin-4-yl}quinazoline-8-carboxamide]

From patent US7998978B2 (Pfizer Inc., priority 2006, dated 2011)
